Measurements as given in US10391109B2, “Use of zoledronic acid to prepare drug treating fatty liver disease” (NANJING UNIVERSITY, priority 2015, dated 2019).
Several values for one entry are separate records, joined by “and”; a condition that tells them apart may be missing. Equal entries are not always repeated.

Legend:
[1] = Body weight, liver weight and epididymal fat pad weight in C57BL/6J mice on regular chow or high fat diet after administration; assay type: in vivo; settings: 50 μg/kg
Text: The present inventors first used model mice with foodborne non-alcoholic fatty liver, that is, high-fat diet (containing 60% fat) was used for inducing C57BL/6J mice for 12 weeks to generate fatty liver. It was found from the experimental assay that feeding of high fat diet could result in hepatic fat accumulation and degeneration in mice.
A total of forty 8-week-old C57BL/6J mice were selected, and randomly assigned to 4 groups of 10 mice. The mice were weighted respectively, fed with regular chow (containing 4% fat) and high fat diet (containing 60% fat), and housed for 12 weeks. The mice were weekly weighted and recorded, and curves were plotted. After 12 weeks, the mice with fatty liver fed with regular chow and high fat diet were administered with zoledronic acid and placebo so as to explore the function for relieving fat accumulation. Meanwhile, the resulting changes of physiological indicators for mice were observed, and different body weights and physiological indicators were recorded.
The RC group is regular chow group, the HFD group is high fat diet group, PBS is placebo, ZOL is zoledronic acid, and the dosage is 50 μg/kg.

liver triglyceride [2] = assay: Measurement of TG in liver tissue, C57BL/6J mice (foodborne non-alcoholic fatty liver); assay type: in vivo; settings: 50 μg/kg tail vein injection once every two days
Description: (§1) About 50 mg of the right lobe of liver in mice was taken, with an accurate weight recorded. It was washed with PBS, placed in 1 ml of a lysis solution and mechanically homogenized. The lysed tissue homogenate was divided into two portions. One portion, 500 μl, was placed in a metal bath at 70° C., heated for 10 min, and centrifuged for 5 min at 2,000×rpm. 1-10 μl was taken for a tissue TG assay with the kit. Another 500 μl was used for a protein concentration assay using the BCA method.
(§2) According to the forgoing general materials and methods, the mice in the HFD group were first administered with zoledronic acid and placebo. In this example, zoledronic acid was administered mainly by tail vein injection. The primary site of action of the drug was liver. The injection was performed once every two days. The dosage was 50 μg/kg of zoledronic acid. Tissue triglyceride level assay and H&E staining were performed for mice after administration.
(§3) The HFD group is high fat diet group, the RC group is regular chow group, PBS is placebo, ZOL is zoledronic acid, and the dosage is 50 μg/kg.

[3] = system: hepatic macrovesicular steatosis; assay: H&E staining of liver paraffin sections, high fat diet mice; assay type: in vivo, C57BL/6J mice; settings: 50 μg/kg injection
Description: (§4) An appropriate amount of the right lobe of liver tissue was taken, fixed in 4% paraformaldehyde for 24-48 h, dehyrdated with graded ethanols, cleared with xylene, infiltrated with wax, embedded in paraffin, and sectioned at a thickness of 5 μm.
(§5) The sections were de-waxed in xylene for 10 min and 5 min respectively, and then reconstituted in graded ethanol solutions. The sections were subjected to hematoxylin staining for 4 min, and then slightly washed with distilled water. The sections were blued in 0.25% NH3.H2O for 30 s, and then washed with distilled water. The sections were dehydrated with graded ethanols to 95% ethanol, stained for 2-3 s in 0.5% eosin, dehydrated in 100% ethanol, and soaked in xylene for 2 min. Finally, the sections were mounted in Rhamsan gum.
as §2

[4] = system: blood alanine transaminase (ALT); assay: Assay for blood ALT level, C57BL/6J mice; assay type: in vivo; settings: 50 μg/kg
Description: (§6) After the mice were anaesthetized, blood was collected from the eye socket veins, left at room temperature for 30 min, and centrifuged upon serum precipitation. 10 μl serum was taken for ALT and AST assays with the kit.
(§7) Similar to Example 1, according to the forgoing general materials and methods, the mice in the HFD group were first administered with zoledronic acid and placebo. The blood alanine transaminase (ALT) and aspartate transaminase (AST) levels in mice after administration were assayed.
as §3

[5] = system: aspartate transaminase (AST); assay: Assay for blood AST level, C57BL/6J mice; assay type: in vivo; settings: 50 μg/kg
Description: as §6, §7, §3

[6] = Body weight, liver weight and epididymal fat pad weight in ob/ob mice after administration; assay type: in vivo
Description: In order to further verify the lipid reducing effect of zoledronic acid, the experiments of the present invention were carried out in ob/ob mice of hereditary obese mice models with severe non-alcoholic fatty liver mainly characterized by lipid accumulation. A total of thirty 10-week-old ob/ob mice were selected, randomly assigned to 3 groups of 10 mice, and housed with regular chow (containing 4% fat). Ob/ob mice were mutant mice mainly manifested as obesity and related metabolic syndrome. […] Ob/ob mice were administered with zoledronic acid and control placebo. The resulting changes of physiological indicators in mice were observed and different body weights and physiological indicators were recorded.

liver triglyceride [7] = assay: Measurement of TG in liver tissue, ob/ob mice (hereditary non-alcoholic fatty liver); assay type: in vivo
Description: as §1

hepatic lipid content = assay: Quantitative analysis of hepatic lipid content in ob/ob mice (Computer Tomography); assay type: in vivo
[8] = system: hepatic lipid accumulation; assay: H&E staining of liver paraffin sections, ob/ob mice; assay type: in vivo; settings: various dosages
Description: as §4, §5
(§8) Further, the liver structure was shown by H&E staining and the lipid accumulation was shown by Oil Red staining. Injection of zoledronic acid can effectively reduce hepatic lipid accumulation in hereditary obese mice. […] In addition, the use of the zoledronic acid preparation can effectively reduce the body weight of hereditary obese mice, effectively reduce accumulation of epididymal fat pads in mice, and modulate the triglyceride content in body, achieving an effective lipid reducing, lipid lowering, and slimming effect.

[9] = system: hepatic lipid accumulation; assay: Oil Red staining of liver cryosections, ob/ob mice; assay type: in vivo; settings: various dosages
Description: An appropriate amount of the right lobe of liver was taken at the same site for laboratory mice in each group, fixed in paraformaldehyde for 2 h, dehyrdated with 30% sucrose for 8-12 h, and embedded in OCT. It was stored in a refrigerator at −70° C. It was sectioned using a Cryostat Microtome at a section thickness of 15 μm.
The cryosections were slightly dried at room temperature, slightly washed with 60% ethanol, stained in an Oil Red 0 staining solution (60% Oil Red 0 stock plus 40% distilled water) for 10-15 min, differentiated in 60% ethanol, washed, subjected to nuclear staining with hematoxylin for 1 min, washed for 1 min, suck dried, and mounted with glycerin.
as §8

blood ALT = assay: Assay for blood ALT level, ob/ob mice; assay type: in vivo
Description: as §6
(§9) Similar to Example 1, according to the forgoing general materials and methods, ob/ob mice were first administered with zoledronic acid preparation and placebo at various dosages. The blood ALT and AST levels in ob/ob mice after treatment were assayed.

blood AST = assay: Assay for blood AST level, ob/ob mice; assay type: in vivo
Description: as §6, §9

## O=P(O)(O)C(O)(Cn1ccnc1)P(=O)(O)O [ZOL, 1-hydroxy-2-(imidazol-1-yl)-ethylidene-1,1-bisphosphonic acid]
[1]; HFD group (high fat diet)
  Average body weight/g: 36.73 ± 3.74 g
  Average decline of average body weight vs PBS: 16%
  Average decline of average epididymal fat pad weight vs PBS: 30%
  Average decline of average liver weight vs PBS: 29%
  Average epididymal fat pad weight/g: 2.33 ± 0.62 g
  Average liver weight/g: 1.41 ± 0.17 g
[1]; RC group (regular chow)
  Average body weight/g: 26.72 ± 1.69 g
  Average decline of average body weight vs PBS: 13%
  Average decline of average epididymal fat pad weight vs PBS: 39%
  Average decline of average liver weight vs PBS: 17%
  Average epididymal fat pad weight/g: 0.46 ± 0.11 g
  Average liver weight/g: 1.28 ± 0.08 g
Liver triglyceride [2]; HFD group
  Average decline of liver triglyceride vs PBS: 44.9%
  Liver triglyceride: 38.18 ± 10.27 mg/g
Liver triglyceride [2]; RC group
  Average decline of liver triglyceride vs PBS: 12.5%
  Liver triglyceride: 14.33 ± 6.39 mg/g
[3]
  Liver histology, H&E staining (FIG. 3): significant remission in hepatic macrovesicular steatosis
[4]; HFD group
  ALT IU/L: 62.8 ± 14.08 IU/L
  Average decline of ALT vs PBS: 45.2% and 44.7%
[4]; RC group
  ALT IU/L: 39.2 ± 12.09 IU/L
  Average decline of ALT vs PBS: no significant changes
[5]; HFD group
  AST IU/L: 76 ± 31.42 IU/L
  Average decline of AST vs PBS: 44.7% and 45.2%
[5]; RC group
  AST IU/L: 52.4 ± 21.20 IU/L
  Average decline of AST vs PBS: no significant changes
[6]; ZOL50 (50 μg/kg)
  Average body weight/g: 50.56 ± 2.82 g
  Average decline of average body weight vs PBS: 7%
  Average decline of average epididymal fat pad weight vs PBS: 39%
  Average decline of average liver weight vs PBS: 17%
  Average epididymal fat pad weight/g: 3.628 ± 0.27 g
  Average liver weight/g: 3.47 ± 0.58 g
[6]; ZOL200 (200 μg/kg)
  Average body weight/g: 45.94 ± 5.16 g
  Average decline of average body weight vs PBS: 15%
  Average decline of average epididymal fat pad weight vs PBS: 4%
  Average decline of average liver weight vs PBS: 46%
  Average epididymal fat pad weight/g: 3.79 ± 0.30 g
  Average liver weight/g: 2.26 ± 0.21 g
Liver triglyceride [7]; ZOL50 (50 μg/kg)
  Average decline of liver triglyceride vs PBS: No significant change
  Liver triglyceride: 140.88 ± 44.29 mg/g
Liver triglyceride [7]; ZOL200 (200 μg/kg)
  Average decline of liver triglyceride vs PBS: 34%
  Liver triglyceride: 98.49 ± 40.08 mg/g
Hepatic lipid content; ZOL50 (50 μg/kg)
  Average decline of lipid content vs PBS: 20.4%
  Lipid content: 592.00 ± 201.08 mg/mL
Hepatic lipid content; ZOL200 (200 μg/kg)
  Average decline of lipid content vs PBS: 34%
  Lipid content: 490.22 ± 211.95 mg/mL
[8]
  Liver histology, H&E staining (FIG. 7): significant decrease in hepatic lipid accumulation
[9]
  Liver histology, Oil Red staining (FIG. 8): significant decrease in hepatic lipid accumulation
Blood ALT; ZOL50 (50 μg/kg)
  ALT IU/L: 281.6 ± 142.59 IU/L
  Average decline of ALT vs PBS: 42.5%
Blood ALT; ZOL200 (200 μg/kg)
  ALT IU/L: 277.4 ± 188.65 IU/L
  Average decline of ALT vs PBS: 43.4%
Blood AST; ZOL50 (50 μg/kg)
  AST IU/L: 240.25 ± 70.54 IU/L
  Average decline of AST vs PBS: 30.4%
Blood AST; ZOL200 (200 μg/kg)
  AST IU/L: 269.75 ± 71.53 IU/L
  Average decline of AST vs PBS: 21.9%
